Laboratory results taken from patent publication US10335392B2, “Cyclic compounds useful as modulators of TNF α” (BRISTOL-MYERS SQUIBB COMPANY, priority 2015, dated 2019).

Target: TNFα (Homo sapiens (Human), UniProt P01375)
Assay: TNF induced HEK-Blue assay
Assay type: cell-based
Conditions: TNFα 0.5 ng/ml; HEK-Blue-CD40L cells, NF-kB-driven secreted alkaline phosphatase reporter; 18 h
Description: TNF or CD40L-Induced HEK-Blue Assay
Test compounds serially diluted in DMSO were plated in an assay plate (LABCYTE, Cat. # LP-0200) at final concentrations ranging from 0.004 μM to 25 μM. TNFα (final concentration 0.5 ng/ml) or CD40L (final concentration 30 ng/ml) in assay buffer [DMEM, 4.5 g/l glucose (Gibco, Cat. 21063-029), 10% FBS (Sigma, F4135), 1% Penicillin-Streptomycin (Gibco, Cat. 15140-122), 1% Anti-Anti (Gibco, Cat. 15240-112) and 2 mM L-glutamine (Gibco, Cat. 25030-081)] was then added to the assay plate. After a 30 minute pre-incubation at 37° C. and 5% CO2, HEK-Blue™-CD40L cells (INVIVOGEN, Cat. Code hkb-cd40) containing a NF-kB-driven secreted alkaline phosphatase reporter gene were seeded into the assay plate at a density of 20,000 cells per well. This plate was then incubated for 18 h at 37° C. and 5% CO2. Secreted alkaline phosphatase expression was measured using QUANTI-Blue™ (INVIVOGEN, Cat. Code rep-qb1) according to manufacturer's specifications and the assay plate was read on a PerkinElmer Envision at 620 nm.
Inhibition data for the test compound over a range of concentrations was plotted as percentage inhibition of the test compound (100%=maximum inhibition). IC50 values were determined after correcting for background [(sample read−mean of low control)/(mean of high control−mean of low control)] where by the low control is DMSO without stimulation and high control is DMSO with stimulation. The IC50 is defined as the concentration of test compound which produces 50% inhibition and was quantified using the 4 parameter logistic equation to fit the data.

TNFα, sequence (P01375 77-233): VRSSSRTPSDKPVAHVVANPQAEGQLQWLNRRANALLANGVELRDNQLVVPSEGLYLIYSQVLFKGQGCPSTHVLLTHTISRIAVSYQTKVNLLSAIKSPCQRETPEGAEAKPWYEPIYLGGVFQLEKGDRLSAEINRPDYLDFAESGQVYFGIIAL

| SMILES | IC50 [µM] |
| --- | --- |
| CC(C)(O)c1ncc(-c2cc3c(cc2F)nc2n3[C@@H](c3ccccc3OC(F)F)[C@H]3C[C@@H]23)cn1 (racemic) [Example 1, rac-2-(5-((1aR,8R,8aS)-8-(2-(difluoromethoxy)phenyl)-4-fluoro-1,1a,8,8a-tetrahydrobenzo[d]cyclopropa[3,4]pyrrolo[1,2-a]imidazol-5-yl)pyrimidin-2-yl) propan-2-ol] | < 1 |
| Fc1cc2nc3n(c2cc1Br)[C@@H](c1ccccc1OC(F)F)[C@@H]1C[C@H]31 (racemic) [Example 11, rac-(1aR,8S,8aS)-5-bromo-8-(2-(difluoromethoxy)phenyl)-4-fluoro-1,1a,8,8a-tetrahydrobenzo[d]cyclopropa[3,4]pyrrolo[1,2-a]imidazole] | 10 to 25 |
| CC(C)(O)c1ncc(-c2cc3c(cc2F)nc2n3[C@@H](c3ccccc3OC(F)F)[C@@H]3C[C@H]23)cn1 (racemic) [Example 20, rac-2-(5-((1aR,8S,8aS)-8-(2-(difluoromethoxy)phenyl)-4-fluoro-1,1a,8,8a-tetrahydrobenzo[d]cyclopropa[3,4]pyrrolo[1,2-a]imidazol-5-yl)pyrimidin-2-yl)propan-2-ol] | < 1 |
| CC(C)(O)c1ncc(-c2cc3c(cc2F)nc2n3[C@@H](c3ccccc3Oc3ccccc3)[C@@H]3C[C@H]23)cn1 (racemic) [Example 23, rac-2-(5-((1aR,8S,8aS)-4-fluoro-8-(2-phenoxyphenyl)-1,1a,8,8a-tetrahydrobenzo[d]cyclopropa[3,4]pyrrolo[1,2-a]imidazol-5-yl)pyrimidin-2-yl)propan-2-ol] | 1 to 10 |
| CC(C)(O)c1ncc(-c2cc3c(cc2F)nc2n3[C@@H](c3ccccc3Oc3ccccc3)[C@H]3C[C@@H]23)cn1 (racemic) [Example 24, rac-2-(5-((1aR,8R,8aS)-4-fluoro-8-(2-phenoxyphenyl)-1,1a,8,8a-tetrahydrobenzo[d]cyclopropa[3,4]pyrrolo[1,2-a]imidazol-5-yl)pyrimidin-2-yl)propan-2-ol] | 1 to 10 |
| CC(C)(O)c1ncc(-c2cc3c(cc2F)nc2n3[C@@H](c3ccccc3OCc3ccccc3)[C@@H]3C[C@H]23)cn1 (racemic) [Example 25, rac-2-(5-((1aR,8S,8aS)-8-(2-(benzyloxy)phenyl)-4-fluoro-1,1a,8,8a-tetrahydrobenzo[d]cyclopropa[3,4]pyrrolo[1,2-a]imidazol-5-yl)pyrimidin-2-yl)propan-2-ol] | 1 to 10 |
| CC(C)(O)c1ncc(-c2cc3c(cc2F)nc2n3[C@@H](c3ccccc3OCc3ccccc3)[C@H]3C[C@@H]23)cn1 (racemic) [Example 26, rac-2-(5-((1aR,8R,8aS)-8-(2-(benzyloxy)phenyl)-4-fluoro-1,1a,8,8a-tetrahydrobenzo[d]cyclopropa[3,4]pyrrolo[1,2-a]imidazol-5-yl)pyrimidin-2-yl)propan-2-ol] | 10 to 25 |
| COc1ccc(-c2ccc3nc4n(c3c2)[C@@H](c2ccccc2)[C@H]2CNC[C@@H]42)cn1 (racemic) [Example 36, rac-(3aR,10S,10aS)-7-(6-methoxypyridin-3-yl)-10-phenyl-1,2,3,3a,10,10a-hexahydrobenzo[d]pyrrolo[3′,4′:3,4]pyrrolo[1,2-a]imidazole] | 10 to 25 |
| COc1ccc(-c2ccc3nc4n(c3c2)[C@@H](c2ccccc2)[C@H]2CN(C(=O)NC(C)(C)C)C[C@@H]42)cn1 (racemic) [Example 37, rac-(3aR,10S,10aS)—N-(tert-butyl)-7-(6-methoxypyridin-3-yl)-10-phenyl-3,3a,10,10a-tetrahydrobenzo[d]pyrrolo[3′,4′:3,4]pyrrolo[1,2-a]imidazole-2(1H)-carboxamide] | 1 to 10 |
| COc1ccc(-c2ccc3nc4n(c3c2)[C@@H](c2ccccc2)[C@H]2CN(C(C)=O)C[C@@H]42)cn1 (racemic) [Example 38, rac-1-((3aR,10S,10aS)-7-(6-methoxypyridin-3-yl)-10-phenyl-3,3a,10,10a-tetrahydrobenzo[d]pyrrolo[3′,4′:3,4]pyrrolo[1,2-a]imidazol-2(1H)-yl)ethan-1-one] | 10 to 25 |
| CCNC(=O)N1C[C@H]2[C@@H](C1)c1nc3ccc(-c4ccc(OC)nc4)cc3n1[C@H]2c1ccccc1 (racemic) [Example 39, rac-(3aR,10S,10aS)—N-ethyl-7-(6-methoxypyridin-3-yl)-10-phenyl-3,3a,10,10a-tetrahydrobenzo[d]pyrrolo[3′,4′:3,4]pyrrolo[1,2-a]imidazole-2(1H)-carboxamide] | 1 to 10 |
| COc1ccc(-c2ccc3nc4n(c3c2)[C@@H](c2ccccc2)[C@H]2CN(C(=O)OC(C)(C)C)C[C@@H]42)cn1 (racemic) [Example 40, rac-tert-butyl (3aR,10S,10aS)-7-(6-methoxypyridin-3-yl)-10-phenyl-3,3a,10,10a-tetrahydrobenzo[d]pyrrolo[3′,4′:3,4]pyrrolo[1,2-a]imidazole-2(1H)-carboxylate] | 10 to 25 |
| COc1ccc(-c2ccc3nc4n(c3c2)[C@@H](c2ccccc2)[C@H]2CN(C(=O)c3ccccc3)C[C@@H]42)cn1 (racemic) [Example 41, rac-((3aR,10S,10aS)-7-(6-methoxypyridin-3-yl)-10-phenyl-3,3a,10,10a-tetrahydrobenzo[d]pyrrolo[3′,4′:3,4]pyrrolo[1,2-a]imidazol-2(1H)-yl)(phenyl)methanone] | 10 to 25 |
| COc1ccc(-c2ccc3nc4n(c3c2)[C@@H](c2ccccc2)[C@H]2CC=CC[C@@H]42)cn1 (racemic) [Example 42, rac-(4aR,11R,11aS)-8-(6-methoxypyridin-3-yl)-1-phenyl-4,4a,11,11a-tetrahydro-1H-benzo[4,5]imidazo[2,1-a]isoindole] | 10 to 25 |
| CNC(=O)c1ccc(-c2ccc3nc4n(c3c2)[C@@H](c2cc(C)ccc2C)[C@H]2[C@H](c3ccccc3)[C@@H]42)cn1 (racemic) [Example 43, rac-5-((1R,1aS,8S,8aR)-8-(2,5-dimethylphenyl)-1-phenyl-1,1a,8,8a-tetrahydrobenzo[d]cyclopropa[3,4]pyrrolo[1,2-a]imidazol-5-yl)-N-methylpicolinamide] | 10 to 25 |
| CC(C)(O)c1ncc(-c2cc3c(cc2F)nc2n3[C@H](c3ccccc3OC(F)F)[C@H]3C[C@@H]23)cn1 (stereo in doubt) [Example 21, 2-(5-((1aR,8S,8aS)-8-(2-(difluoromethoxy)phenyl)-4-fluoro-1,1a,8,8a-tetrahydrobenzo[d]cyclopropa[3,4]pyrrolo[1,2-a]imidazol-5-yl)pyrimidin-2-yl)propan-2-ol] | < 1 |
| CC(C)(O)c1ncc(-c2cc3c(cc2F)nc2n3[C@@H](c3ccccc3OC(F)F)[C@H]3C[C@@H]23)cn1 [Example 2, 2-(5-((1aR,8R,8aS)-8-(2-(difluoromethoxy)phenyl)-4-fluoro-1,1a,8,8a-tetrahydrobenzo[d]cyclopropa[3,4]pyrrolo[1,2-a]imidazol-5-yl)pyrimidin-2-yl)propan-2-ol] | < 1 |
| CC(C)(O)c1ncc(-c2cc3c(cc2F)nc2n3[C@H](c3ccccc3OC(F)F)[C@@H]3C[C@H]23)cn1 [Example 3, 2-(5-((1aS,8S,8aR)-8-(2-(difluoromethoxy)phenyl)-4-fluoro-1,1a,8,8a-tetrahydrobenzo[d]cyclopropa[3,4]pyrrolo[1,2-a]imidazol-5-yl)pyrimidin-2-yl)propan-2-ol] | < 1 |
| O=C(O)CN1CCN(c2ncc(-c3cc4c(cc3F)nc3n4[C@@H](c4ccccc4OC(F)F)[C@H]4C[C@@H]34)cn2)CC1 [Example 4, 2-(4-(5-((1aR,8R,8aS)-8-(2-(difluoromethoxy)phenyl)-4-fluoro-1,1a,8,8a-tetrahydrobenzo[d]cyclopropa[3,4]pyrrolo[1,2-a]imidazol-5-yl)pyrimidin-2-yl)piperazin-1-yl)acetic acid] | < 1 |
| NS(=O)(=O)c1ccc(-c2cc3c(cc2F)nc2n3[C@@H](c3ccccc3OC(F)F)[C@H]3C[C@@H]23)cc1 [Example 5, 4-((1aR,8R,8aS)-8-(2-(difluoromethoxy)phenyl)-4-fluoro-1,1a,8,8a-tetrahydrobenzo[d]cyclopropa[3,4]pyrrolo[1,2-a]imidazol-5-yl)benzenesulfonamide] | < 1 |
| Fc1cc2nc3n(c2cc1-c1cnc(N2CCOCC2)nc1)[C@@H](c1ccccc1OC(F)F)[C@H]1C[C@@H]31 [Example 6, 4-(5-((1aR,8R,8aS)-8-(2-(difluoromethoxy)phenyl)-4-fluoro-1,1a,8,8a-tetrahydrobenzo[d]cyclopropa[3,4]pyrrolo[1,2-a]imidazol-5-yl)pyrimidin-2-yl)morpholine] | < 1 |
| NC(=O)c1ccc(-c2cc3c(cc2F)nc2n3[C@@H](c3ccccc3OC(F)F)[C@H]3C[C@@H]23)cn1 [Example 7, 5-((1aR,8R,8aS)-8-(2-(difluoromethoxy)phenyl)-4-fluoro-1,1a,8,8a-tetrahydrobenzo[d]cyclopropa[3,4]pyrrolo[1,2-a]imidazol-5-yl)picolinamide] | < 1 |
